# Data as given in article PMC8001783, “New Lignanamides with Antioxidant and Anti-Inflammatory Activities Screened Out and Identified from Warburgia ugandensis Combining Affinity Ultrafiltration LC-MS with SOD and XOD Enzymes” (Antioxidants, 2021).
# Values joined by “and” are separate entries in the source; they are usually repeats but may differ in a detail not shown here. Equal entries are not always repeated. Marks after values point to notes of the source that are not given here.
# Key:
# [1] = test system: superoxide dismutase (SOD); experiment: Affinity ultrafiltration LC-MS/MS with SOD (relative binding affinity); parameters: key: -: No binding affinity; details: peaks of WUE-A4, SOD 2 U, 37 °C 1 h, n = 3
# Protocol: (§1) The experimental conditions were proposed according to previous relevant studies. Briefly, the optimized experiment was composed of three steps. Incubation was the first step, where 100 μL WUE-A4 (10.0 mg/mL), 10 µL SOD (2 U) or XOD (2 U), and 90 µL Tris-HCl (pH = 7.8) were mixed well in 1.5 mL EP tubes, and then incubated at 37 °C in the dark for 1 h. Meanwhile, the incubation operations of inactivated enzymes (inactivated enzymes were obtained by heating enzymes in a 99 °C water bath for 10 min) were the same as the active enzymes. Adsorption was the second step, where the incubated solutions were transferred to ultrafiltration tubes with 30 KDa (for SOD) or 10 KDa (for XOD) ultrafiltration membranes and then centrifuged at 10,000 rpm for 10 min at 25 °C. Simultaneously, components which had no binding affinity to enzymes were washed out. Immediately, 300 µL of Tris-HCl solution (pH = 7.8) was added to the ultrafiltration tubes and centrifuged at 10,000 rpm for 5 min at 25 °C to remove the potential unbound components. Desorption was the third step, where 300 µL of 90% (v/v) MeOH-H2O was added and incubated for 10 min at room temperature, and the mixed solutions were centrifuged at 10,000 rpm for another 10 min at 25 °C. After that, the desorption process was repeated two times to release those components with specific bindings to SOD or XOD from the enzyme-ligand complexes. Finally, those ultrafiltrates were dried and reconstituted in 50 µL MeOH for the HPLC-UV/ESI-MS/MS analysis.
# (§2) HPLC-UV/ESI-MS/MS was carried out to characterize the components in WUE-A4 before and after ultrafiltration by using a Thermo Accela 600 series HPLC connected with a TSQ Quantum Access MAX mass spectrometer (Thermo Fisher Scientific, San Jose, CA, USA). A Waters Symmetry RP-C18 column (4.6 × 250 mm, 5 µm) was used to perform chromatographic analysis at 30 °C, and the mobile phase consisted of H2O with 0.1% formic acid (A) and ACN (B). The optimized HPLC elution procedures were as follows: 0–15 min, 17% B; 15–40 min, 17–30% B, 40–42 min: 30–56% B. The flow rate was 0.8 mL/min, the injection volume was 10 µL, and the HPLC-UV chromatograms were detected at a wavelength of 254 nm. The negative ion modes were applied to obtained ESI-MS/MS data. Moreover, the parameters of instrument were set as follows: the vaporizer temperature was 350 °C, the capillary temperature was 250 °C, the spray voltage was 3000 V, the cone voltage energy was 40 V, the collision energy was 10 V, the sheath gas pressure was 40 psi, the aux gas pressure was 10 psi, the drying gas flow rate was 6.0 L/min, and the mass range was set from 50 to 1100 (m/z) in the full-scan mode. Finally, the Thermo Xcalibur ChemStation (Thermo Fisher Scientific) was used for data acquisition and analysis.
# (§3) For further evaluation of the affinity binding strength between the potential ligands and the target enzymes, the relative binding affinity (RBA) was employed to compare the variation of the correlated peak areas in the UF-HPLC-UV chromatograms before and after activation. The RBA formula is expressed as RBA = Aactive/Ainactivated, where the Aactive and Ainactivated represent the peak areas obtained from the WUE-A4 samples with activated and inactivated SOD or XOD, respectively.
# [2] = test system: xanthine oxidase (XOD); experiment: Affinity ultrafiltration LC-MS/MS with XOD (relative binding affinity); details: peaks of WUE-A4, XOD 2 U, 37 °C 1 h, n = 3
# Protocol: as §1, §2, §3
# [3] = ABTS free radical scavenging assay; details: 30 min, 734 nm, n = 3; for IC50: pure compounds
# Protocol: The ABTS free radical scavenging activities of extracts and pure compounds from stem barks of W. ugandensis were tested according to previous studies with slight modifications. ABTS^+ solution was prepared by mixing equal volumes of potassium persulfate (4.9 mM in H2O) and ABTS (7.0 mM in H2O) and then incubated for 12 h in the darkness. The prepared ABTS^+ solution was diluted with MeOH to ensure an absorbance value about 0.700 ± 0.005 at 734 nm. Firstly, 10 µL of appropriately diluted solution of samples was added to the 190 µL ABTS^+ solution in 96-well plate. Secondly, the mixtures were gently shaken and put at room temperature for 30 min in the darkness. Finally, the absorbance was recorded at 734 nm with multifunctional microplate reader. Trolox was used as positive control, and MeOH was used as blank control. Samples and controls were tested in triplicate (n = 3). The antioxidant activities of ABTS were expressed as IC50 and TEAC values. The inhibition of the ABTS radicals was calculated according to the following formula:ABTS scavenging activity (%) = (1 − absorbance of sample/absorbance of blank control) × 100,(2) where ABTS scavenging activities (%) were plotted against the concentration of samples to acquire the IC50.
# [4] = Ferric reducing antioxidant power (FRAP) assay; details: 37 °C, 10 min, 593 nm, n = 3
# Protocol: The ferric reducing antioxidant power assays on different extracts and pure compounds of stem barks from W. ugandensis were tested according to previous studies with slight modifications. Firstly, freshly prepared FRAP reagent (Fe^3+-TPTZ solution) was composed of FeCl3∙6H2O (20 mM in H2O), TPTZ (10 mM in 40 mM HCl), and acetate buffer (300 mM, pH = 3.6) at a ratio of 1:1:10 (v/v/v), then incubated at 37 °C after preparation, and used within 1–2 h. Secondly, 10 µL of appropriately diluted solution of samples was added to the 190 µL freshly prepared FRAP reagent in 96-well plate. Thirdly, the mixtures were gently shaken and put at 37 °C for 10 min. Finally, the absorbance was recorded at 593 nm with multifunctional microplate reader. Trolox was used as a positive control, and MeOH was used as blank control. Each of the samples and controls were tested in triplicate (n = 3). The antioxidant activities of FRAP were expressed as FRAP values and TEAC values. The FRAP values were calculated and expressed as millimoles of Fe^2+ equivalents per gram of sample (mmol Fe^2+/g) based on a calibration curve plotted using FeSO4∙7H2O as standard at a concentration ranging from 0.0185 to 1.5 mM.
# [5] = DPPH free radical scavenging assay; details: 30 min, 517 nm, n = 3; for IC50: pure compounds
# Protocol: The DPPH free radical scavenging activities of extracts and pure compounds from stem barks of W. ugandensis were tested according to previous studies with slight modifications. Firstly, 10 µL solutions of the samples, appropriately diluted with MeOH, were homogeneously mixed with 190 µL solution of DPPH (0.1 mM in MeOH) in a 96-well plate. Secondly, the mixtures were gently shaken and put at room temperature for 30 min in the darkness. Finally, the absorbance was recorded at 517 nm with multifunctional microplate reader. Trolox was used as positive control, and MeOH was used as blank control. Each of the samples and controls were tested in triplicate (n = 3). The antioxidant activities of DPPH were expressed as IC50 (concentration of samples caused 50% inhibition) and TEAC values. The TEAC values were calculated from the standard curve of Trolox and expressed as millimoles of Trolox equivalents per gram of sample (mmol TE/g). The inhibition of the DPPH radical was calculated according to the following formula:DPPH scavenging activity (%) = (1 − absorbance of sample/absorbance of blank control) × 100,(1) where DPPH scavenging activities (%) were plotted against the concentration of samples to obtain the IC50.
Compound,UF-RBA SOD (relative binding affinity = Aactive/Ainactivated) [1],UF-RBA XOD (relative binding affinity = Aactive/Ainactivated) [2],UF-RBA XOD (relative binding affinity = Aactive/Ainactivated) ([2]; listed as peak 12),IC50 [3],FRAP value [4],IC50 [5],ABTS IC50 ([3]; extracts/fractions),DPPH IC50 ([5]; extracts/fractions),UF-RBA SOD (relative binding affinity = Aactive/Ainactivated) ([1]; listed as peak 3)
"1-(3,4-dihydroxy-5-methoxyphenyl)-1,2-dihydroxy-7,8-dihydroxy-N-[(4-hydroxyphenyl)-ethyl]-N′-[(4-hydroxyphenyl) -ethyl]-6-methoxynaphthalene-2,3-dicarboxamide [compound 12]",-,"1.7 ± 0.5 ^b,c",1.70,1150 ± 630 µM,1.1 ± 0.2 ^c mmol Fe^2+/g,142 ± 36.1 µM,,,
"Cc1c(C)c2c(c(C)c1O)CCC(C)(C(=O)O)O2 (stereo not shown) [Trolox, 6-Hydroxy-2,5,7,8-tetramethylchroman-2-carboxylic acid, reference compound]",,,,22.4 µM,16.212 ± 1.271 mmol Fe^2+/g and 16.2 ± 1.3 ^a mmol Fe^2+/g,36 µM,5.9 ± 0.1 ^e µg/mL,9.0 ± 0.3 ^f µg/mL,
"C[C@@H]1O[C@@H](O[C@@H]2[C@@H](O)[C@H](O)[C@@H](CO)O[C@H]2c2cc(-c3cc(=O)c4c(O)cc(O)cc4o3)ccc2O)[C@H](O)[C@H](O)[C@H]1O [compound 3, 2-[3-[2-O-(6-deoxy-α-L-mannopyranosyl)-β-D-glucopyranosyl]-4-hydroxyphenyl]-5,7-dihydroxy-4H-1-benzopyran-4-one]","2.0 ± 0.1 ^a,b",1.0 ± 0.2 ^d,,,,,,,1.99
"O=C1OCC2OC(Oc3ccc(cc3)C(=O)OCC3OC(Oc4ccc1cc4)C(O)C(O)C3O)C(O)C(O)C2O [compound 5, 4-[(6′-O-β-D-allopyranosyl)-oxy]-hydroxy-benzoic acid cyclic dimeric inner ester]",1.1 ± 0.1 ^e,"1.2 ± 0.1 ^c,d",,,,,,,
